Measured values: patent publication US20050261194A1, “Use of thymulin-like peptides for making pain-relieving medicines” (priority 2001, published 2005)

Legend:
Type in all cases: in vivo, rat
TNF-α = TNF-α in hind paw skin after intraplantar ET (ELISA)
Protocol: These experiments required tissue sampling. The animals were sacrificed by anesthesia (sodium penthiobarbital, 50 mg/kg) and the skin of the hind paws is sampled either at 1 h (for the determination of the TNFα) or at 4 h (for the determination of IL-1β, IL-6 and NGF) after the endotoxin injection.
These tissue samples are weighed and then quick frozen and stored at −70° C. with a view of proceeding with the evaluation of IL-1β, TNFα, IL-6 and NGF.
In another series of experiments, the tissues are taken as described above using different groups of rats; the one group being pretreated with TAP 30 minutes before injection of ET and the other group having been injected with TAP only.
The tissues are homogenized in a phosphate buffer solution (PBS, pH=7.4), containing 0.4 M of NaCl, 0.05% of Tween-20®, 0.5% bovine serum albumin (BSA), 0.1 mM of phenylmethylsulfonyl fluoride, 0.1 mM of benzethonium chloride, 10 mM of EDTA and 20 KI/mL of aprotinin.
The mixture is then centrifuged at 1,200 g for 60 minutes at 4° C. The cytokines and the NFG contained in the supernatant were measured using ELIZA assays. […]

rats [1] = test: Systemic inflammatory hyperalgesia induced by intraperitoneal ET; PP and TF tests; settings: TAP 25 μg i.p. thirty minutes before ET 50 μg i.p.
Protocol: In the second model, the rats receive an intraperitoneal injection of endotoxin ([…] in 100 μl of physiological saline solution).
Protocol 2(a): One group of rats received one intraperitoneal injection of ET (50 μg), while the other group was pretreated with the protein analogue of thymuline (TAP) (25 μg, intraperitoneal injection), 30 minutes before the injection of ET.
The TF and PP tests were then done at 1 hour, 3 hours and 6 hours after the injection of ET.

rats [2] = test: Daily treatment with TAP in neuropathic rats (model not stated, FIG. 11); settings: TAP 1 μg in 100 μL daily over 5 consecutive days
rats [3] = test: CCI (chronic constriction injury) mononeuropathy: allodynia and hyperpathy
Protocol: Adult male Sprague-Dawley rats (250-300 g) were used for these trials. Over the period of the experiments, the rats were placed under standard conditions (4 to 5 individuals to a cage, 12 hour day/night cycle, 22.2° C.), with free access to water and food. The necessary surgical procedures were done under deep anesthesia using ketamine (Ketalar®, 40-50 mg/kg, intraperitoneal injection), preceded by pre-anesthesia using chlorpromazine (8 mg/kg, idem) and atropine (0.05 mg/kg, idem).
Mononeuropathy was induced in different groups of rats (n=6 rats in each group) according to the CCI (chronic constriction injury, chronic nerve constriction, Bennet G. J. et Xie Y. K., 1988, A peripheral mononeuropathy in rat that produces disorders of pain sensation like those seen in man, Pain, 33:87-107) or according to the SNI (spared nerve injury, spared nerve of the enervated paw, Decosterd I. et Woolf C. J., 2000, Spared nerve injury: an animal model of persistent peripheral neuropathic pain, Pain, 87:149-158). The sciatic nerve was exposed after dissection of the posterior hip and by incision through the skin and the fatty layer covering the popliteal fossa. For the CCI model, four loose ligatures (chromed catgut 4.0) were placed on the proximal side of the sciatic trifurcation. For the SNI model, the external popliteal sciatic nerve and the internal popliteal sciatic nerve were isolated, tightly ligatured and sectioned, while the sural nerve innervating the lateral aspect of the paw was left intact.
The rats were placed in individual compartments of one cage, whose floor was made of a metal grating allowing access to the heel pad and to the lateral aspect of the paw with wires.
For mechanical allodynia, the plantar surface of the hind paws (lateral surface for the SNI model and the median plantar surface for the CCI) was contacted with the von Frey wires (VFF 4.31 and 5.07, Stoelting Co., USA), which corresponded to the forces of 2.041 and 11.749 g (18.5 and 106.7 mN), respectively. […] The number of paw retractions induced by 10 trials was established for each rat on each hind paw prior to (baseline) and after induction of the mono-neuropathy. In normal rats, the low caliber wires (VFF 4.31) and higher caliber (VFF 5.07) induced an average 1.3±0.2 and 2.7±0.3 responses/10 trials, respectively.
The method described by Choi et al. (1994, Behavioral signs of ongoing pain and cold allodynia in a rat model of neuropathic pain, Pain, 59:369-376) was used for evaluation of cold allodynia. It consists of applying several drops (approximately 50 μl) of an acetone solution on the paw and measuring the duration of the retraction reaction. One half second and 20 seconds are the values chosen arbitrarily for the minimum and maximum threshold, respectively.
The duration (D) of retraction of the paw (RP) in response to a nociceptive ray of radiant heat oriented towards the plantar surface was established in the normal rat. […] the DRP after induction of the mononeuropathy was considered to be an indication of hyperalgesia. Each rat underwent two RP tests per session a minimum of every five minutes.
The neuropathic manifestations were at maximum seven to ten days after induction of the neuropathy. The effects of the injections of TAP were tested during this period, which corresponds to the peak of the neuropathy.
During the experiments done on rats suffering from neuropathy, allodynia and hyperpathy were evaluated in each group of animals with reference to the baseline condition established prior to induction of mononeuropathy. For example, the average of the number of paw withdrawal induced by each VFF was calculated for all of the rats of each group and the variation of this mean has been determined after treatment with TAP at different time periods after the injection. The same method has been followed for allodynia in the code and the hypertrophy relative to heat.

## Glu-Ala-lys-Ser-Gln-Gly-Gly-Ser-Asp (SQGGSD; N-terminal Glu-Ala-Lys; printed: Ser-Gln-Gly-Gly-Ser-Asp) [TAP]
TNF-α; TAP 25 μg in control animals, no ET
  change of TNF-α concentration, TAP alone: did not induce significant change
TNF-α; TAP pretreatment 30 min before ET, paw, one hour after ET, ET alone 345.0±61.0, saline 100.0±8.00 pg/paw
  effect on ET-induced increase of TNF-α concentration: nullified the increase of the TNF-α concentration
Rats [1]; FIG. 4A
  effect on mechanical hyperalgesia (PP test): abolished
Rats [1]; FIG. 4B
  effect on thermal hyperalgesia (TF test): abolished
Rats [2]; FIG. 11
  effect of daily treatment on allodynia: progressive reduction of the manifestations of the allodynia
  effect of daily treatment on the effects of each injection: potentiation of the effects of each injection
Rats [2]; compared with single injection
  effect of daily treatment on cold allodynia: increased inhibition of the cold allodynia
Rats [3]; CCI, TAP 5 μg i.p.
  reversibility of the effects, time after injection: three to four hours
  time of maximum effect on cold allodynia after injection: 75 min
  time of maximum effect on hyperpathy after injection: 75 min
  time of maximum effect on mechanical allodynia after injection: two hours
Rats [3]; CCI, doses 1, 5 and 25 μg compared, FIG. 7
  dose giving maximal attenuation of the neuropathic manifestations: 5 μg/rat
Rats [3]; TAP 5 μg in 100 μl i.p., FIG. 5
  effect on neuropathic manifestations, CCI model: significant attenuation
